Test results: article PMC7614683, “A small molecule PI3Kα activator for cardioprotection and neuroregeneration” (Nature, 2023)
Values joined by “and” are separate entries in the source; they are usually repeats but may differ in a detail not shown here. Equal entries are not always repeated. Where two headings read alike, the source gives them in different places.

Assays:
PI3Kα = target: T1, PI3Kα (Homo sapiens, UniProt P42336); test: FRET membrane binding assay; format: biochemical; settings: compared with pY
T1 construct: Full-length human p110α was expressed either in a complex with full-length human p85α (for HTS, biochemistry and HDX-MS); 6xHis tag followed by TEV protease site (N); host or cells: Spodoptera frugiperda Sf9, baculovirus
Procedure: Membrane binding assays were performed as previously published. Briefly, liposomes were prepared with 5% (w/v) brain PtdIns(4,5)P2, 20% brain phosphatidylserine, 35% brain phosphatidylethanolamine, 15% brain phosphatidylcholine, 10% cholesterol, 5% sphingomyelin, and 10% dansyl-phosphatidylserine (Avanti Polar Lipids). PI3Kα was used at a final concentration of 0.5 μM. Protein solutions were preincubated with 10 μM pY or compounds for 10 min before addition of liposomes. Liposomes were used at a final concentration of 50 μg/ml. The reaction mixture contained 5 μl enzyme, 2 μl compound and 3 μl liposomes, all diluted in 30 mM HEPES, 50 mM NaCl, pH 7.4. The reaction was allowed to proceed for 10 min at room temperature with 384 black-polystyrene plates (Corning #3544) on an orbital shaker at 200 rpm. FRET signals were measured using PHERAStar (BMG) with a 280 nm excitation filter with 350 nm and 520 nm emission filters to measure Dansyl-PS FRET emissions, respectively. FRET signal shown as I-I0, where I is the intensity at 520 nm, and I0 is the intensity at 520 nm for the solution in the absence of protein.

LCK = LCK (Homo sapiens, UniProt P06239); test: SelectScreen kinase profiling, LCK; format: biochemical
Procedure: 133 protein kinases and 7 lipid kinases were counterscreened, with 1938 used at 1 μM, using the Adapta, Lantha and Z-LYTE assays (SelectScreen Kinase Profiling Service; Thermofisher – experimental details of these assays can be found here: https://www.thermofisher.com/uk/en/home/industrial/pharma-biopharma/drug-discovery-development/target-and-lead-identification-and-validation/kinasebiology/kinase-activity-assays.html. The tree represention in KinMap[59] generated courtesy of Cell Signaling Technology, Inc. (www.cellsignal.com). mTORC1 (mTOR/RAPTOR/LST8) protein complex and ATM kinase and substrates were produced as previously described[57],[60]. Screening of 1938 was conducted using SuperSep Phos-Tag 50 μmol/l 100 x 100 x 6.6 mm 17-well (192-18001/199-18011) gels. For ATM assays, 100 nM ATM was incubated for 30 min at 30°C with 5 μM GST-p53 and 1 mM ATP, in the absence or presence of 200 μM 1938 in ATM Kinase Buffer (50 mM HEPES pH 7.5, 100 mM NaCl, 10% glycerol, 2 mM […], 5 mM MgCl2). As a positive control for ATM activation, the same reaction was carried out with 100 nM ATM/5 μM GST-p53/1 mM ATP in the presence of 100 nM Mre11-Rad50-Nbs1 (MRN) complex, a known activator of ATM[61]. For mTORC1 assays, 50 nM mTORC1 complex (mTOR/LST8/RAPTOR) was incubated for 3 h at 30°C with 15 μM 4E-BP1, 10 mM MgCl2 and 250 μM ATP, in the absence or presence of 200 μM 1938. As a ‘positive’ control, a higher concentration (150 nM) of mTORC1 complex (mTOR/LST8/RAPTOR) was incubated for 3 h at 30°C with 15 μM 4E-BP1, 10 mM MgCl2 and 250 μM ATP. Kinase reactions were quenched by addition of SDS-PAGE Loading Buffer (as per manufacturer’s instructions) and freezing at -20°C before being run on the Phos-tag gels at 150 V for 90 min. Gels were then stained using InstantBlue™ Coomassie, and quantified using BioRad Image Lab Software. Kinase assays were carried out in triplicate.

mouse heart = test: In vivo model of ischaemia reperfusion injury in mice; settings: 10 mg/kg 1938 i.v., heart after 15 min; single mice

Sequence of LCK (P06239 whole entry): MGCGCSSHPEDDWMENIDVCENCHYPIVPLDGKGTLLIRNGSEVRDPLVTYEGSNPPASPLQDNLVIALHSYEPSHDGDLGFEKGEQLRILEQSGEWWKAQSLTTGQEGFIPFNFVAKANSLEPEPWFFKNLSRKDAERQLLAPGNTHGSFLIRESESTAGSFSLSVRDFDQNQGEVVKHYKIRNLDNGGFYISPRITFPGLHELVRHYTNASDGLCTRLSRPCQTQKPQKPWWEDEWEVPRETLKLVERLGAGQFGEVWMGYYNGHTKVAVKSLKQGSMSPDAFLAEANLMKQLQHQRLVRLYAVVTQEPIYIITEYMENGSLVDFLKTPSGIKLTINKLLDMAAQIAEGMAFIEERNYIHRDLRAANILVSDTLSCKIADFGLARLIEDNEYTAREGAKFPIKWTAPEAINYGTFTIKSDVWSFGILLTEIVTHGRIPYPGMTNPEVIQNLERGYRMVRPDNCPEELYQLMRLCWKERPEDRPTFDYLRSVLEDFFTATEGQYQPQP
T1 sequence (P42336 whole entry): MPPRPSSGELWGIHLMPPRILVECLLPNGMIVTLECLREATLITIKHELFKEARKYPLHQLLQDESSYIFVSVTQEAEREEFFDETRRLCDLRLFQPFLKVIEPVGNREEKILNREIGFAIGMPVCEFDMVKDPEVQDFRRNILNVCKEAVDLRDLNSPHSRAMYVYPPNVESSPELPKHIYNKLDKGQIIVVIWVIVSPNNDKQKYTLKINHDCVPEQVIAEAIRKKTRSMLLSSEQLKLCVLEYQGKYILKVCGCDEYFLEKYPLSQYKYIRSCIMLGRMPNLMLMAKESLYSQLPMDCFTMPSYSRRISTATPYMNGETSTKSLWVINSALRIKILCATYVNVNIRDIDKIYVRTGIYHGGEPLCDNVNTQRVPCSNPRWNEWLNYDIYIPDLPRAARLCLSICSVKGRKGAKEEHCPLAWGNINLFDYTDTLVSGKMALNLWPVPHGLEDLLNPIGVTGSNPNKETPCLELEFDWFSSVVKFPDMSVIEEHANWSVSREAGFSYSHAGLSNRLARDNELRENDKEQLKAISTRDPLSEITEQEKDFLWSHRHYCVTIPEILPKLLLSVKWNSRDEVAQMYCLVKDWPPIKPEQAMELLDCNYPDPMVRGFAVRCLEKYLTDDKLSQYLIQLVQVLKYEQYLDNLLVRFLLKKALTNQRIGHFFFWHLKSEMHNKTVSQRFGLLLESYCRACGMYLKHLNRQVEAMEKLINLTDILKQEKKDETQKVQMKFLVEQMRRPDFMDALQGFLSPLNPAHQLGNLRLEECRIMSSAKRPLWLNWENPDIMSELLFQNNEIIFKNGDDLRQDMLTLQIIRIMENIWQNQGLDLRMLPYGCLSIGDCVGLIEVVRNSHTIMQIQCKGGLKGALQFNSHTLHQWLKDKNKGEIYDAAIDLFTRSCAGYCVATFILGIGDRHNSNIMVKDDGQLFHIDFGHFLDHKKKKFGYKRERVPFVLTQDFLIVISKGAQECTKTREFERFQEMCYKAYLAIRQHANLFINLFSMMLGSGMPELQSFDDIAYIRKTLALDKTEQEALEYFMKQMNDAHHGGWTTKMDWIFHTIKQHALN
T1 sequence (P27986 whole entry partner): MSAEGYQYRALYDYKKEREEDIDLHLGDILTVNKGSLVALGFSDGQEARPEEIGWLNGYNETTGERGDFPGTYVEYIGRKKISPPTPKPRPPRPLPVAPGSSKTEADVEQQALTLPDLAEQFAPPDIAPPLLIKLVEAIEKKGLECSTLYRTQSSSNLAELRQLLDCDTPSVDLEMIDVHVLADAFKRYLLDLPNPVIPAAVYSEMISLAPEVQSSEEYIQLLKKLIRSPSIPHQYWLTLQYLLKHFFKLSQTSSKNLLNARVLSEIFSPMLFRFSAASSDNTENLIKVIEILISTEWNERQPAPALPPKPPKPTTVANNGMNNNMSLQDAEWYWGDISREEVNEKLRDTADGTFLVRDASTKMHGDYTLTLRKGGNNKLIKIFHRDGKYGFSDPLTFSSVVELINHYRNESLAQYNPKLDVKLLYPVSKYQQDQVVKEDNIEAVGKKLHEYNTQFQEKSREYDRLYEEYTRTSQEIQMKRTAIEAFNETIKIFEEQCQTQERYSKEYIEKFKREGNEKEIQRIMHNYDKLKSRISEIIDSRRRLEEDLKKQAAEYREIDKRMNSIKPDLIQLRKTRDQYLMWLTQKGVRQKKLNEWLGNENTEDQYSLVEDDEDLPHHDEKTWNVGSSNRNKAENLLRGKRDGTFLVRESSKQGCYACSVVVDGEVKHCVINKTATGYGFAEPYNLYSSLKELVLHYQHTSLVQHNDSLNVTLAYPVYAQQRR

CCN1CCN(c2ccc(Nc3cc(Nc4cccc5c4N(C(C)=O)CC5)ccn3)cc2)CC1 [Compound 1938]
PI3Kα binding to lipid membranes (FRET signal), maximum level (PI3Kα): about half of that induced by pY
inhibition at 1 µM (LCK; read-out: % Inhibition Point 1): 60%
inhibition at 1 µM (LCK; read-out: % Inhibition Point 2): 57%
inhibition at 1 µM (LCK; read-out: % Inhibition mean): 58%
Western blot pAkt in vivo: pAkt/tAkt (mouse heart): 7.58 and 5.35 and 5.18
